Assay results reported in US8541462B2, “Tetrahydrocarbazole derivatives as ligands of G-protein coupled receptors” (AEterna Zentaris GmbH, priority 2007, dated 2013).

Assay: Metabolic stability testing in liver microsomes
Assay type: in vitro ADME
Conditions: mixed-gender human liver microsomes, 1 mg microsomal protein/mL, initial concentration 10 μM, 60 minutes at 37° C.; WO 2006/005484-substance 7 = 100%
Method: Subcellular fractions of different tissues can be prepared easily by ultracentrifugation. Most commonly these are prepared from the liver of animals and human donors to gain information about the potential hepatic clearance of compounds (first-pass elimination of drugs). Human or animal (e.g. dog, mouse, rat) subcellular fraction like liver microsomes, or possibly the fraction called S9 have therefore become a very commonly and widely used as an in vitro model to investigate mainly cytochrome P450 dependent phase I (but also phase II) metabolism that takes place in the liver.
In order to reflect the standard proportion of the enzymes in human and animal livers, liver microsomes are usually pooled from a number of […] of the same sex (or mixed-gender). By supplementing the liver microsomes with relevant cofactors and other components it is possible to investigate and distinguish between CYPs, flavin-containing monooxygenase (FMO) and UDP-glucuronosyltransferase (UGT) activities.
Selected compounds of the invention were tested for their stability in mixed-gender human liver microsomes and compared to pertinent prior art compounds.
Under the test conditions applied (1 mg microsomal protein/mL, initial concentration of 10 μM, and incubation for 60 minutes at 37° C.) the following normalized results were obtained.

| Structure (SMILES) | Normalized microsomal stability [%] |
| --- | --- |
| CCOC(=O)c1csc(C(NC(=O)[C@@]2(NC(=O)[C@@H](NC(=O)Cc3ccccc3F)[C@@H](C)CC)CCc3[nH]c4c(C(F)(F)F)cccc4c3C2)[C@@H](C)CC)n1 (stereo in doubt) [compound 251, 2-{(1R,2S)-1-[((R)-3-{(2S,3S)-2-[2-(2-Fluoro-phenyl)-acetylamino]-3-methyl-pentanoylamino}-8-trifluoromethyl-2,3,4,9-tetrahydro-1H-carbazole-3-carbonyl)-amino]-2-methyl-butyl}-thiazole-4-carboxylic acid ethyl ester] | 1033 |
| CCNC(=O)Nc1nnc([C@@H](NC(=O)[C@]2(NC(=O)[C@@H](NC(=O)Cc3ccccc3F)C(C)CC)CCc3[nH]c4c(C(F)(F)F)cccc4c3C2)C(C)CC)o1 (stereo partly drawn) [Compound 31, (S)-3-{(S)-2-[2-(2-Fluoro-phenyl)-acetylamino]-3-methyl-pentanoylamino}-8-trifluoromethyl-2,3,4,9-tetrahydro-1H-carbazole-3-carboxylic acid {(S)-1-[5-(3-ethyl-ureido)-[1,3,4]oxadiazol-2-yl]-2-methyl-butyl}-amide] | 276 |
| CCC(C)[C@H](NC(=O)Cc1ccccc1F)C(=O)N[C@]1(C(=O)N[C@H](C(=O)NCN2CCOCC2)C(C)CC)CCc2[nH]c3c(C(F)(F)F)cccc3c2C1 (stereo partly shown) [Compound 36] | 774 |
| CCC(C)[C@H](NC(=O)Cc1ccccc1F)C(=O)N[C@]1(C(=O)N[C@H](C(=S)NCCN2CCOCC2)C(C)CC)CCc2[nH]c3c(C(F)(F)F)cccc3c2C1 (stereo partly drawn) [Compound 54, (R)-3-{(S)-2-[2-(2-Fluoro-phenyl)-acetylamino]-3-methyl-pentanoylamino}-8-trifluoromethyl-2,3,4,9-tetrahydro-1H-carbazole-3-carboxylic acid [(S)-2-methyl-1-(2-morpholin-4-yl-ethylthiocarbamoyl)-butyl]-amide] | 611 |
| CCC(C)[C@H](NC(=O)Cc1ccccc1F)C(=O)N[C@]1(C(=O)N[C@H](C(=O)NC2CCC(O)CC2)C(C)CC)CCc2[nH]c3c(C(F)(F)F)cccc3c2C1 (stereo partly drawn) [Compound 73, (R)-3-{(S)-2-[2-(2-Fluoro-phenyl)-acetylamino]-3-methyl-pentanoylamino}-8-trifluoromethyl-2,3,4,9-tetrahydro-1H-carbazole-3-carboxylic acid [(S)-1-(4-hydroxy-cyclohexylcarbamoyl)-2-methyl-butyl]-amide] | 624 |
| CCC(C)[C@H](NC(=O)Cc1ccccc1F)C(=O)N[C@]1(C(=O)N[C@H](C(=S)NCCCCn2cncn2)C(C)CC)CCc2[nH]c3c(C(F)(F)F)cccc3c2C1 (stereo partly drawn) [compound 114, (R)-3-{(S)-2-[2-(2-Fluoro-phenyl)-acetylamino]-3-methyl-pentanoylamino}-8-trifluoromethyl-2,3,4,9-tetrahydro-1H-carbazole-3-carboxylic acid [(S)-2-methyl-1-1(4-[1,2,4]triazol-1-ylbutylthiocarbamoyl)-butyl]-amide] | 537 |
| CCC(C)[C@H](NC(=O)Cc1ccccc1F)C(=O)N[C@]1(C(=O)N[C@H](C(=O)Nc2ccc3ncccc3c2)C(C)CC)CCc2[nH]c3c(C(F)(F)F)cccc3c2C1 (stereo partly drawn) [compound 137, (R)-3-{(S)-2-[2-(2-Fluoro-phenyl)-acetylamino]-3-methyl-pentanoylamino}-8-trifluoromethyl-2,3,4,9-tetrahydro-1H-carbazole-3-carboxylic acid [(S)-2-methyl-1-(quinolin-6-ylcarbamoyl)-butyl]-amide] | 1296 |
| CCC(C)[C@H](NC(=O)Cc1ccccc1F)C(=O)N[C@]1(C(=O)N[C@H](C(=O)NNc2ccccc2)C(C)CC)CCc2[nH]c3c(C(F)(F)F)cccc3c2C1 (stereo partly drawn) [compound 144, (R)-3-{(S)-2-[2-(2-Fluoro-phenyl)-acetylamino]-3-methyl-pentanoylamino}-8-trifluoromethyl-2,3,4,9-tetrahydro-1H-carbazole-3-carboxylic acid [(S)-2-methyl-1-(N′-phenyl-hydrazinocarbonyl)-butyl]-amide] | 1352 |
| CCC(C)[C@H](NC(=O)Cc1ccccc1F)C(=O)N[C@]1(C(=O)N[C@H](C(=O)NNC(N)=O)C(C)CC)CCc2[nH]c3c(C(F)(F)F)cccc3c2C1 (stereo partly drawn) [compound 164, (R)-3-{(S)-2-[2-(2-Fluoro-phenyl)-acetylamino]-3-methyl-pentanoylamino}-8-trifluoromethyl-2,3,4,9-tetrahydro-1H-carbazole-3-carboxylic acid [(S)-1-(N′-aminocarbonyl-hydrazinocarbonyl)-2-methyl-butyl]-amide] | 1230 |
| CCNC(=O)NC[C@@H](NC(=O)[C@@]1(NC(=O)[C@@H](NC(=O)Cc2ccccc2F)C(C)CC)CCc2[nH]c3c(C(F)(F)F)cccc3c2C1)C(C)CC (stereo partly drawn) [compound 167, (R)-3-{(S)-2-[2-(2-Fluoro-phenyl)-acetylamino]-3-methyl-pentanoylamino}-8-trifluoromethyl-2,3,4,9-tetrahydro-1H-carbazole-3-carboxylic acid {(S)-1-[(3-ethyl-ureido)-methyl]-2-methyl-butyl}-amide] | 274 |
| CCNC(=S)NC[C@@H](NC(=O)[C@@]1(NC(=O)[C@@H](NC(=O)Cc2ccccc2F)C(C)CC)CCc2[nH]c3c(C(F)(F)F)cccc3c2C1)C(C)CC (stereo partly drawn) [compound 173, (R)-3-{(S)-2-[2-(2-Fluoro-phenyl)-acetylamino]-3-methyl-pentanoylamino}-8-trifluoromethyl-2,3,4,9-tetrahydro-1H-carbazole-3-carboxylic acid {(S)-1-[(3-ethyl-thioureido)-methyl]-2-methyl-butyl}-amide] | 285 |
| CCC(C)[C@H](NC(=O)Cc1ccccc1F)C(=O)N[C@]1(C(=O)N[C@H](C(=O)NCc2cncnc2)C(C)CC)CCc2[nH]c3c(C(F)(F)F)cccc3c2C1 (stereo partly shown) [compound 183] | 1350 |
| CCC(C)[C@H](NC(=O)Cc1ccccc1F)C(=O)N[C@]1(C(=O)N[C@H](C(=O)NCCCn2c[n+](C(C)(C)C)nn2)C(C)CC)CCc2[nH]c3c(C(F)(F)F)cccc3c2C1.O=C([O-])C(F)(F)F (stereo partly drawn) [compound 188, 1-tert-butyl-4-(3-{(S)-2-[((R)-3-{(S)-2-[2-(2-fluoro-phenyl)-acetylamino]-3-methyl-pentanoylamino}-8-trifluoromethyl-2,3,4,9-tetrahydro-1H-carbazole-3-carbonyl)-amino]-3-methyl-pentanoylamino}-propyl)-4H-tetrazol-1-ium; Trifluoro-acetate] | 1259 |
| CCC(C)[C@H](NC(=O)Cc1ccccc1F)C(=O)N[C@]1(C(=O)N[C@H](CNC(=O)NCc2ccncc2)C(C)CC)CCc2[nH]c3c(C(F)(F)F)cccc3c2C1 (stereo partly drawn) [compound 190, (R)-3-{(S)-2-[2-(2-Fluoro-phenyl)-acetylamino]-3-methyl-pentanoylamino}-8-trifluoromethyl-2,3,4,9-tetrahydro-1H-carbazole-3-carboxylic acid [(S)-2-methyl-1-(3-pyridin-4-ylmethyl-ureidomethyl)-butyl]-amide] | 665 |
| CCC(C)[C@H](NC(=O)Cc1ccccc1F)C(=O)N[C@]1(C(=O)N[C@H](CNC(=S)NCc2ccncc2)C(C)CC)CCc2[nH]c3c(C(F)(F)F)cccc3c2C1 (stereo partly drawn) [compound 205, (R)-3-{(S)-2-[2-(2-Fluoro-phenyl)-acetylamino]-3-methyl-pentanoylamino}-8-trifluoromethyl-2,3,4,9-tetrahydro-1H-carbazole-3-carboxylic acid [(S)-2-methyl-1-(3-pyridin-4-ylmethyl-thioureidomethyl)-butyl]-amide] | 800 |
| CCC(C)[C@H](NC(=O)Cc1ccccc1F)C(=O)N[C@]1(C(=O)N[C@H](C(=O)NN2CCOCC2)C(C)CC)CCc2[nH]c3c(C(F)(F)F)cccc3c2C1 (stereo partly drawn) [compound 219, (R)-3-{(S)-2-[2-(2-Fluoro-phenyl)-acetylamino]-3-methyl-pentanoylamino}-8-trifluoromethyl-2,3,4,9-tetrahydro-1H-carbazole-3-carboxylic acid [(S)-2-methyl-1-(morpholin-4-ylcarbamoyl)-butyl]-amide] | 452 |
| CCC(C)[C@H](NC(=O)Cc1cccnc1)C(=O)N[C@]1(C(=O)N[C@H](C(N)=S)C(C)CC)CCc2[nH]c3c(C(F)(F)F)cccc3c2C1 (stereo partly drawn) [compound 230, (R)-3-[(S)-3-Methyl-2-(2-pyridin-3-yl-acetylamino)-pentanoylamino]-8-trifluoromethyl-2,3,4,9-tetrahydro-1H-carbazole-3-carboxylic acid ((S)-2-methyl-1-thiocarbamoyl-butyl)-amide] | 1948 |
| CCC(C)[C@H](NC(=O)Cc1ccncc1)C(=O)N[C@]1(C(=O)N[C@H](C(N)=S)C(C)CC)CCc2[nH]c3c(C(F)(F)F)cccc3c2C1 (stereo partly drawn) [compound 236, (R)-3-[(S)-3-Methyl-2-(2-pyridin-4-yl-acetylamino)-pentanoylamino]-8-trifluoromethyl-2,3,4,9-tetrahydro-1H-carbazole-3-carboxylic acid ((S)-2-methyl-1-thiocarbamoyl-butyl)-amide] | 1328 |
| CCC(C)[C@H](NC(=O)NCc1ccc(OC)cc1)C(=O)N[C@]1(C(=O)N[C@H](C(N)=S)C(C)CC)CCc2[nH]c3c(C(F)(F)F)cccc3c2C1 (stereo partly drawn) [compound 239, (R)-3-{(S)-2-[3-(4-Methoxy-benzyl)-ureido]-3-methyl-pentanoylamino}-8-trifluoromethyl-2,3,4,9-tetrahydro-1H-carbazole-3-carboxylic acid ((S)-2-methyl-1-thiocarbamoyl-butyl)-amide] | 307 |
